This note sets out measurements from ChEMBL document CHEMBL1158206, “Ferintoic Acids A and B, New Cyclic Hexapeptides from the Freshwater Cyanobacterium Microcystis aeruginosa” (J Nat Prod, 1996).

A short description of test [1]: Inhibition of chymotrypsin at 150 uM.
Test [2] can be described thus: Inhibition of chymotrypsin at 10 uM.

Calls of active or inactive are those of the source. The rule behind the calls is not given here. Numbered stars: 1 amine (or outer) side, 2 acyl side, 3 side chain; on linkers, the order of the positions; unused ones are H or OH. Bridge positions count the residues as written; N and C are the ends. Square brackets hold non-standard residues; d marks the D form. Peptide text beside a SMILES is read from it. hTyr = N[C@@H](CCc1ccc(O)cc1)C(=O)O; aIle = CC[C@@H](C)[C@H](N)C(=O)O; NMeA = CN[C@@H](C)C(=O)O; CO = O=C([*:1])[*:2]

As to `CC[C@@H](C)[C@@H]1NC(=O)[C@H](NC(=O)N[C@@H](Cc2c[nH]c3ccccc23)C(=O)O)CCCCNC(=O)[C@H](Cc2ccccc2)NC(=O)[C@H](C)N(C)C(=O)[C@H](CCc2ccc(O)cc2)NC1=O`, in test [1], the result was inactive. Same read-out and setting: the value for `CC(C)[C@@H]1NC(=O)[C@H](NC(=O)N[C@@H](Cc2c[nH]c3ccccc23)C(=O)O)CCCCNC(=O)[C@H](Cc2ccccc2)NC(=O)[C@H](C)N(C)C(=O)[C@H](CCc2ccc(O)cc2)NC1=O` ({Trp-CO}-[dK]V[hTyr][NMeA]F; lactam 1-C) was “inactive”.

Consider `CC[C@@H](C)[C@@H]1NC(=O)[C@H](NC(=O)N[C@@H](Cc2ccc(O)cc2)C(=O)O)CCCCNC(=O)[C@H](Cc2ccccc2)NC(=O)[C@H](C)N(C)C(=O)[C@H](CCc2ccc(O)cc2)NC1=O` ({Tyr-CO}-[dK][aIle][hTyr][NMeA]F; lactam 1-C), for which the result in test [2] was Active.
